Source: patent publication US8163718B2, “Nucleoside analogues containing phosphonate or phosphonamide groups” (Gilead Sciences, Inc., priority 2008, dated 2012)

Key:
Test in all cases: Cytostatic cell culture assay (GI50), SRB
Assay type in all cases: cell-based
NCI-H23 = details: Homo sapiens, NCI-H23, 120 h; 5 days incubation
Outline: (§1)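 Seed overnight, 37 °C; 5-fold serial compound dilutions, 5 d at 37 °C; fix with cold 10% TCA; stain with 0.057% SRB in 1% acetic acid; solubilize in 10 mM Tris pH 10.5; OD 500 nm. A day-0 TCA-fixed plate serves as baseline. GI50 by sigmoidal fit.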

Du-145 = details: Homo sapiens, DU-145, 120 h; 5 days incubation
Outline: as §1

HCT-116 = details: Homo sapiens, HCT-116, 120 h; 5 days incubation
Outline: as §1

BT-549 = details: Homo sapiens, BT-549, 120 h; 5 days incubation
Outline: as §1

A549 = details: Homo sapiens, A549, 120 h; 5 days incubation
Outline: as §1

HCT-15 = details: Homo sapiens, HCT-15, 120 h; 5 days incubation
Outline: as §1

Hs-578 = details: Hs578, 120 h; 5 days incubation
Outline: as §1

PC3 = details: Homo sapiens, PC-3, 120 h; 5 days incubation
Outline: as §1

Compound `CCCOc1nc(N)nc2c1ncn2CCOCP(=O)(N1CCC[C@H]1C(=O)OCC)N1CCC[C@H]1C(=O)OCC` [Example 21] has a GI50 (NCI-H23) of 2 nM, a GI50 (Du-145) of 2 nM and a GI50 (HCT-116) of 41 nM. For the same compound, the GI50 (BT-549) was 33 nM, the GI50 (A549) was 128 nM and the GI50 (HCT-15) was 6.7 µM. For the same compound, the GI50 (Hs-578) was 17 nM and the GI50 (PC3) was 26 nM.
